A short description of this data set: activity coefficient (dimensionless); of the first substance listed, at infinite dilution; xn = mol fraction of the nth substance listed. The settings on record: 101 kPa, Liquid, Chromatography, x1 = 0.

± gives the expanded uncertainty stated by the source.

As for `C1CCCCCC1` [cycloheptane] + CCCCn1cc[n+](C)c1.O=S(=O)([N-]S(=O)(=O)C(F)(F)C(F)(F)F)C(F)(F)C(F)(F)F, the activity coefficient amounted to 19.8 ± 1.4 (322.55 K), 35.2 ± 2.4 (342.75 K) and 56.5 ± 3.9 (362.65 K).

`C1COCCO1` [1,4-dioxane] + CCCCCCCCCCn1cc[n+](CCCCCCCCCC)c1C.O=S(=O)([N-]S(=O)(=O)C(F)(F)F)C(F)(F)F: the activity coefficient was found to be 0.463 ± 0.036 (323.1 K), 0.46 ± 0.036 (333.15 K) and 0.453 ± 0.036 (343.15 K).

Turning to `C[N+](=O)[O-]` [nitromethane] + CCn1cc[n+](C)c1.CS(=O)(=O)[O-], the activity coefficient is, setting by setting: (312.55 K) 2.06 ± 0.14; (322.45 K) 1.26 ± 0.081; (332.45 K) 0.801 ± 0.052.

Turning to `CCC(C)CC` [3-methylpentane] + CCCCCCCCCCn1cc[n+](CCCCCCCCCC)c1C.O=S(=O)([N-]S(=O)(=O)C(F)(F)F)C(F)(F)F, the activity coefficient is, setting by setting: (323.1 K) 1.71 ± 0.11; (333.15 K) 1.68 ± 0.11; (343.15 K) 1.63 ± 0.11.

With `C1CCCCCC1` [cycloheptane] + CCCCCCCCCCn1cc[n+](CCCCCCCCCC)c1C.O=S(=O)([N-]S(=O)(=O)C(F)(F)F)C(F)(F)F, the activity coefficient worked out at 3.17 ± 0.22 (323.1 K), 4.46 ± 0.3 (333.15 K) and 6.09 ± 0.41 (343.15 K).

For `C[N+](=O)[O-]` [nitromethane] + CCCCn1cc[n+](C)c1.O=S(=O)([N-]S(=O)(=O)C(F)(F)C(F)(F)F)C(F)(F)C(F)(F)F, the activity coefficient (322.55 K) was 0.625 ± 0.043, the activity coefficient (342.75 K) was 0.682 ± 0.046 and the activity coefficient (362.65 K) came to 0.699 ± 0.047.

`C1CCCCC1` [cyclohexane] + CCCCn1cc[n+](C)c1.O=S(=O)([N-]S(=O)(=O)C(F)(F)C(F)(F)F)C(F)(F)C(F)(F)F: the activity coefficient came to 7 ± 0.48 (322.55 K), 6.12 ± 0.42 (342.75 K) and 5.41 ± 0.37 (362.65 K).

In the case of `C=CCCCC` [hex-1-ene] + CCCCCC[n+]1ccn(C)c1.FC(F)(F)C(F)(F)[P-](F)(F)(F)(C(F)(F)C(F)(F)F)C(F)(F)C(F)(F)F, the activity coefficient is, setting by setting: (312.8 K) 3.67 ± 0.25; (332.85 K) 3.42 ± 0.23; (354.65 K) 3.14 ± 0.21.

With `C=CCCCC` [hex-1-ene] + CCCCn1cc[n+](C)c1.O=S(=O)([N-]S(=O)(=O)C(F)(F)C(F)(F)F)C(F)(F)C(F)(F)F, the activity coefficient turned out to be 6.07 ± 0.41 (322.55 K), 5.55 ± 0.38 (342.75 K) and 5.24 ± 0.36 (362.65 K).

With `C=CCCCC` [hex-1-ene] + CCCCCCCCCCn1cc[n+](CCCCCCCCCC)c1C.O=S(=O)([N-]S(=O)(=O)C(F)(F)F)C(F)(F)F, the activity coefficient was determined as 1.39 ± 0.091 (323.1 K), 1.38 ± 0.09 (333.15 K) and 1.36 ± 0.089 (343.15 K).

In the case of `CCCCCCCCCCCC` [dodecane] + CCCCn1cc[n+](C)c1.O=S(=O)([N-]S(=O)(=O)C(F)(F)C(F)(F)F)C(F)(F)C(F)(F)F, the activity coefficient (322.55 K) came to 77.8 ± 5.3, the activity coefficient (342.75 K) is 62 ± 4.2 and the activity coefficient (362.65 K) was found to be 50.9 ± 3.5.

For the compound `CCc1ccccc1` [ethylbenzene] + CCCCCCCCCCn1cc[n+](CCCCCCCCCC)c1C.O=S(=O)([N-]S(=O)(=O)C(F)(F)F)C(F)(F)F, the activity coefficient (323.1 K) was determined as 0.652 ± 0.045, the activity coefficient (333.15 K) turned out to be 0.662 ± 0.045 and the activity coefficient (343.15 K) was 0.689 ± 0.046.

On to `C=O` [methanal] + CCCCCCCCCCn1cc[n+](CCCCCCCCCC)c1C.O=S(=O)([N-]S(=O)(=O)C(F)(F)F)C(F)(F)F, for which the activity coefficient stood at 0.074 ± 0.03 (323.1 K), 0.08 ± 0.03 (333.15 K) and 0.085 ± 0.03 (343.15 K).

For the compound `CCO` [ethanol] + CCCCn1cc[n+](C)c1.O=S(=O)([N-]S(=O)(=O)C(F)(F)C(F)(F)F)C(F)(F)C(F)(F)F, the activity coefficient (322.55 K) was determined as 1.65 ± 0.11, the activity coefficient (342.75 K) is 1.37 ± 0.089 and the activity coefficient (362.65 K) is 1.18 ± 0.075.

`CCOCC` [diethyl ether] + CCCCn1cc[n+](C)c1.O=S(=O)([N-]S(=O)(=O)C(F)(F)C(F)(F)F)C(F)(F)C(F)(F)F: the activity coefficient (322.55 K) turned out to be 1.72 ± 0.12, the activity coefficient (342.75 K) came to 1.7 ± 0.11 and the activity coefficient (362.65 K) is 1.65 ± 0.11.

For `CCC(=O)CC` [pentan-3-one] + CCCCCCCCCCn1cc[n+](CCCCCCCCCC)c1C.O=S(=O)([N-]S(=O)(=O)C(F)(F)F)C(F)(F)F, the activity coefficient (323.1 K) was 0.37 ± 0.03, the activity coefficient (333.15 K) was found to be 0.378 ± 0.033 and the activity coefficient (343.15 K) was found to be 0.386 ± 0.033.

For `CC#N` [acetonitrile] + CCCCn1cc[n+](C)c1.O=S(=O)([N-]S(=O)(=O)C(F)(F)C(F)(F)F)C(F)(F)C(F)(F)F, the activity coefficient (322.55 K) was 0.528 ± 0.039, the activity coefficient (342.75 K) came to 0.514 ± 0.038 and the activity coefficient (362.65 K) turned out to be 0.504 ± 0.038.

In the case of `CCC[N+](=O)[O-]` [1-nitropropane] + CCn1cc[n+](C)c1.CS(=O)(=O)[O-], the activity coefficient was determined as 4.19 ± 0.28 (312.55 K), 2.7 ± 0.18 (322.45 K) and 1.73 ± 0.12 (332.45 K).

With `ClC(Cl)(Cl)Cl` [tetrachloromethane] + CCn1cc[n+](C)c1.CS(=O)(=O)[O-], the activity coefficient (312.55 K) was 4.57 ± 0.31, the activity coefficient (322.45 K) came out at 4.79 ± 0.33 and the activity coefficient (332.45 K) is 0.669 ± 0.045.

Consider `CCO` [ethanol] + CCn1cc[n+](C)c1.CS(=O)(=O)[O-], for which the activity coefficient is, setting by setting: (312.55 K) 0.438 ± 0.035; (322.45 K) 0.418 ± 0.035; (332.45 K) 0.405 ± 0.034.

Consider `CCCCCCCCCCCC` [dodecane] + CCCCCC[n+]1ccn(C)c1.FC(F)(F)C(F)(F)[P-](F)(F)(F)(C(F)(F)C(F)(F)F)C(F)(F)C(F)(F)F, for which the activity coefficient runs as follows: (312.8 K) 39.3 ± 2.7; (332.85 K) 33.1 ± 2.3; (354.65 K) 25.7 ± 1.8.

For `ClC(Cl)Cl` [trichloromethane] + CCn1cc[n+](C)c1.CS(=O)(=O)[O-], the activity coefficient runs as follows: (312.55 K) 0.563 ± 0.04; (322.45 K) 0.479 ± 0.037; (332.45 K) 1.42 ± 0.093.

As for `C1CCCCCC1` [cycloheptane] + CCCCCC[n+]1ccn(C)c1.FC(F)(F)C(F)(F)[P-](F)(F)(F)(C(F)(F)C(F)(F)F)C(F)(F)C(F)(F)F, the activity coefficient by setting is: (312.8 K) 9.01 ± 0.61; (332.85 K) 13.2 ± 0.9; (354.65 K) 28.7 ± 2.

For the compound `CCCCCC` [hexane] + CCCCCCCCCCn1cc[n+](CCCCCCCCCC)c1C.O=S(=O)([N-]S(=O)(=O)C(F)(F)F)C(F)(F)F, the activity coefficient by setting is: (323.1 K) 1.82 ± 0.12; (333.15 K) 1.79 ± 0.12; (343.15 K) 1.76 ± 0.12.

For `CCCCO` [butan-1-ol] + CCCCn1cc[n+](C)c1.O=S(=O)([N-]S(=O)(=O)C(F)(F)C(F)(F)F)C(F)(F)C(F)(F)F, the activity coefficient reads like this: (322.55 K) 2.49 ± 0.17; (342.75 K) 2 ± 0.14; (362.65 K) 1.7 ± 0.11.

In the case of `c1ccncc1` [pyridine] + CCCCn1cc[n+](C)c1.O=S(=O)([N-]S(=O)(=O)C(F)(F)C(F)(F)F)C(F)(F)C(F)(F)F, the activity coefficient (322.55 K) came out at 0.386 ± 0.033, the activity coefficient (342.75 K) came to 0.429 ± 0.035 and the activity coefficient (362.65 K) came to 0.45 ± 0.036.

As to `CCCCCCCC` [octane] + CCCCn1cc[n+](C)c1.O=S(=O)([N-]S(=O)(=O)C(F)(F)C(F)(F)F)C(F)(F)C(F)(F)F, the activity coefficient reads like this: (322.55 K) 20.4 ± 1.4; (342.75 K) 17.3 ± 1.2; (362.65 K) 15.5 ± 1.1.

On to `CCCCCC` [hexane] + CCCCCC[n+]1ccn(C)c1.FC(F)(F)C(F)(F)[P-](F)(F)(F)(C(F)(F)C(F)(F)F)C(F)(F)C(F)(F)F, for which the activity coefficient runs as follows: (312.8 K) 6.39 ± 0.44; (332.85 K) 5.69 ± 0.39; (354.65 K) 4.41 ± 0.3.

For `CCCCCCCCCCC` [undecane] + CCCCn1cc[n+](C)c1.O=S(=O)([N-]S(=O)(=O)C(F)(F)C(F)(F)F)C(F)(F)C(F)(F)F, the activity coefficient (322.55 K) turned out to be 57.3 ± 3.9, the activity coefficient (342.75 K) amounted to 45.9 ± 3.1 and the activity coefficient (362.65 K) came out at 37.8 ± 2.6.

Take `CCCC(C)=O` [pentan-2-one] + CCCCn1cc[n+](C)c1.O=S(=O)([N-]S(=O)(=O)C(F)(F)C(F)(F)F)C(F)(F)C(F)(F)F: the activity coefficient came to 0.666 ± 0.045 (322.55 K), 0.686 ± 0.046 (342.75 K) and 0.701 ± 0.047 (362.65 K).

As to `CO` [methanol] + CCCCCCCCCCn1cc[n+](CCCCCCCCCC)c1C.O=S(=O)([N-]S(=O)(=O)C(F)(F)F)C(F)(F)F, the activity coefficient runs as follows: (323.1 K) 0.963 ± 0.061; (333.15 K) 0.857 ± 0.055; (343.15 K) 0.755 ± 0.05.

For the compound `Cc1ccccc1` [toluene] + CCCCCCCCCCn1cc[n+](CCCCCCCCCC)c1C.O=S(=O)([N-]S(=O)(=O)C(F)(F)F)C(F)(F)F, the activity coefficient is 0.512 ± 0.038 (323.1 K), 0.52 ± 0.039 (333.15 K) and 0.527 ± 0.039 (343.15 K).

In the case of `CC1CCCCC1` [methylcyclohexane] + CCCCn1cc[n+](C)c1.O=S(=O)([N-]S(=O)(=O)C(F)(F)C(F)(F)F)C(F)(F)C(F)(F)F, the activity coefficient (322.55 K) turned out to be 9.09 ± 0.62, the activity coefficient (342.75 K) worked out at 7.96 ± 0.54 and the activity coefficient (362.65 K) is 7.07 ± 0.48.

As for `CC#N` [acetonitrile] + CCCCCCCCCCn1cc[n+](CCCCCCCCCC)c1C.O=S(=O)([N-]S(=O)(=O)C(F)(F)F)C(F)(F)F, the activity coefficient came out at 0.47 ± 0.037 (323.1 K), 0.453 ± 0.036 (333.15 K) and 0.44 ± 0.035 (343.15 K).

As to `ClC(Cl)(Cl)Cl` [tetrachloromethane] + CCCCn1cc[n+](C)c1.O=S(=O)([N-]S(=O)(=O)C(F)(F)C(F)(F)F)C(F)(F)C(F)(F)F, the activity coefficient was 2.4 ± 0.16 (322.55 K), 2.35 ± 0.16 (342.75 K) and 2.33 ± 0.16 (362.65 K).

Values taken from the NIST ThermoML archive (doi:10.1021/je200195q).
